Results published in patent US7772241B2, “Variolin derivatives and their use as antitumor agents” (Pharma Mar S.A., priority 2001, dated 2010).
Like-named read-outs stand apart in the source and are kept apart here.

Assays:
A-549 = test: Inhibition of cells growth by colorimetric (SRB) assay, A-549; details: for GI50 / CC50: Homo sapiens, A549, 48 h; for TGI A-549 / A-549 TGI: SRB assay, 48 hours exposure
Outline: (§1)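 Human tumour cells in RPMI 1640 with 10% FBS were seeded at 5×10^3 cells/well, allowed to attach for 18 h, then exposed to samples at 10 to 10^−8 μg/ml for 48 h. Growth was measured by SRB staining after TCA fixation, with absorbance read at 490 nm in triplicate wells.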

HT-29 = test: Inhibition of cells growth by colorimetric (SRB) assay, HT-29; details: for GI50 / CC50: Homo sapiens, HT-29, 48 h; for TGI HT-29 / HT-29 TGI: SRB assay, 48 hours exposure
Outline: as §1

[1] = Inhibition of cells growth by colorimetric (SRB) assay, HMEC1; details: human, HMEC1 cells, 48 hours exposure
From the text: (§2) The finality of these assays is to interrupt the growth of a “in vitro” tumor cell culture by means a continued exhibition of the cells to the sample to be testing.
(§3) This form of the assay employs 96 well cell culture microplates of 9 mm diameter (Faircloth, 1988; Mosmann, 1983). Most of the cell lines are obtained from American Type Culture Collection (ATCC) derived from different human cancer types.
(§4) Cells are maintained in RPMI 1640 10% FBS, supplemented with 0.1 g/l penicillin and 0.1 g/l streptomycin sulphate and then incubated at 37° C., 5% CO2 and 98% humidity. For the experiments, cells were harvested from subconfluent cultures using trypsin and resuspended in fresh medium before plating.
(§5) Cells are seeded in 96 well microtiter plates, at 5×10^3 cells per well in aliquots of 195 μl medium, and they are allowed to attach to the plate surface by growing in drug free medium for 18 hours. Afterward, samples are added in aliquots of 5 μl in a ranging from 10 to 10^−8 μg/ml, dissolved in DMSO/EtOH/PBS (0.5:0.5:99). After 48 hours exposure, the antitumor effect are measured by the SRB methodology: cells are fixed by adding 50 μl of cold 50% (wt/vol) trichloroacetic acid (TCA) and incubating for 60 minutes at 4° C. Plates are washed with deionized water and dried. One hundred μl of SRB solution (0.4% wt/vol in 1% acetic acid) is added to each microtiter well and incubated for 10 minutes at room temperature. Unbound SRB is removed by washing with 1% acetic acid. Plates are air dried and bound stain is solubilized with Tris buffer. Optical densities are read on a automated spectrophotometric plate reader at a single wavelength of 490 nm.
(§6) The values for mean +/−SD of data from triplicate wells are calculated. Some parameters for cellular responses can be calculated: GI=growth inhibition, TGI=total growth inhibition (cytostatic effect) and LC=cell killing (cytotoxic effect).

HMEC1 = test: as above; details: for GI50: Homo sapiens, HMEC-1, 48 h; for TGI H-MEC-1 / H-MEC-1 TGI: SRB assay, 48 hours exposure, in M (unit assumed)
From the text: as §2, §3, §4, §5, §6

[2] = read-out: GI50 A-549, SRB assay, 48 hours exposure
[3] = read-out: LC50 A-549, SRB assay, 48 hours exposure
[4] = read-out: GI50 HT-29, SRB assay, 48 hours exposure
[5] = read-out: LC50 HT-29, SRB assay, 48 hours exposure
[6] = read-out: GI50 H-MEC-1, SRB assay, 48 hours exposure
[7] = read-out: A-549 LC50, SRB assay, 48 hours exposure
[8] = read-out: HT-29 GI50, SRB assay, 48 hours exposure
[9] = read-out: HT-29 LC50, SRB assay, 48 hours exposure
[10] = read-out: A-549 GI50, SRB assay, 48 hours exposure
[11] = read-out: H-MEC-1 GI50, SRB assay, 48 hours exposure

In the case of `CSc1nccc(-c2c3cc(Cl)cnc3n3c(SC)nccc23)n1` [Compound 47], the GI50 (A-549; [2]) is reported as 17.2 µM, the CC50 (A-549; [3]) is reported as 26.7 µM and the “TGI A-549” value (A-549) is reported as 2.67E−05. For the same molecule, the GI50 (HT-29; [4]) was 20.4 µM, the CC50 (HT-29; [5]) was 26.7 µM and the “TGI HT-29” value (HT-29) was 2.67E−05. The CC50 at 48 h ([1]; LC50 H-MEC-1, SRB assay) was 26.7 µM, the GI50 (HMEC1; [6]) was 26.7 µM and the “TGI H-MEC-1” value (HMEC1) was 2.67E−05.
With `CSc1nccc(-c2c3cc(F)c(Cl)nc3n3c(SC)nccc23)n1` [Compound 48] the GI50 (A-549; [2]) was 25.5 µM, the CC50 (A-549; [3]) was 25.5 µM and the “TGI A-549” value (A-549) was 2.55E−05. For the same molecule, the GI50 (HT-29; [4]) was 25.5 µM, the CC50 (HT-29; [5]) was 25.5 µM and the “TGI HT-29” value (HT-29) was 2.55E−05. The CC50 at 48 h ([1]; LC50 H-MEC-1, SRB assay) was 25.5 µM, the GI50 (HMEC1; [6]) was 25.5 µM and the “TGI H-MEC-1” value (HMEC1) was 2.55E−05.
With `COc1cccc(-c2c3cccnc3n3c(SC)nccc23)c1` [Compound 57] the CC50 (A-549; [7]) was 31.1 µM, the GI50 (A-549; [2]) was 22.5 µM and the “A-549 TGI” value (A-549) was 3.11E−05. For the same molecule, the GI50 (HT-29; [8]) was 31.1 µM, the CC50 (HT-29; [9]) was 31.1 µM and the “HT-29 TGI” value (HT-29) was 3.11E−05. The CC50 at 48 h ([1]; LC50 H-MEC-1, SRB assay) was 31.1 µM, the GI50 (HMEC1; [6]) was 31.1 µM and the “TGI H-MEC-1” value (HMEC1) was 3.11E−05.
In the case of `CSc1nccc2c(-c3ccccc3)c3cccnc3n12` [Compound 58], the CC50 (A-549; [7]) is reported as at least 34.3 µM, the GI50 (A-549; [2]) is reported as at least 34.3 µM and the “A-549 TGI” value (A-549) is reported as 3.43E−05. The GI50 (HT-29; [8]) was at least 34.3 µM, the CC50 (HT-29; [9]) was at least 34.3 µM and the “HT-29 TGI” value (HT-29) was 3.43E−05. For the same molecule, the CC50 at 48 h ([1]; LC50 H-MEC-1, SRB assay) was at least 34.3 µM, the GI50 (HMEC1; [6]) was at least 34.3 µM and the “TGI H-MEC-1” value (HMEC1) was 3.43E−05.
In the case of `CSc1nccc2c(-c3cccc([N+](=O)[O-])c3)c3cccnc3n12` [Compound 59], the GI50 (A-549; [10]) is reported as 29.7 µM, the CC50 (A-549; [7]) is reported as 29.7 µM and the “A-549 TGI” value (A-549) is reported as 2.97E−05. For the same molecule, the GI50 (HT-29; [8]) was 29.7 µM, the CC50 (HT-29; [9]) was 29.7 µM and the “HT-29 TGI” value (HT-29) was 2.97E−05. The CC50 at 48 h ([1]; H-MEC-1 LC50, SRB assay) was 29.7 µM, the GI50 (HMEC1; [11]) was 29.7 µM and the “H-MEC-1 TGI” value (HMEC1) was 2.97E−05.
With `Nc1nccc2c(-c3ccccc3)c3cccnc3n12` [Compound 63] the GI50 (A-549; [10]) was at least 38.4 µM, the CC50 (A-549; [7]) was at least 38.4 µM and the “A-549 TGI” value (A-549) was 3.84E−05. For the same molecule, the GI50 (HT-29; [8]) was at least 38.4 µM, the CC50 (HT-29; [9]) was at least 38.4 µM and the “HT-29 TGI” value (HT-29) was 3.84E−05. The CC50 at 48 h ([1]; H-MEC-1 LC50, SRB assay) was at least 38.4 µM, the GI50 (HMEC1; [11]) was at least 38.4 µM and the “H-MEC-1 TGI” value (HMEC1) was 3.84E−05.
With `COc1cccc(-c2c3cccnc3n3c(N)nccc23)c1.Cl` [Compound 67] the CC50 (A-549; [7]) was 30.6 µM, the GI50 (A-549; [2]) was 30.6 µM and the “A-549 TGI” value (A-549) was 3.06E−05. The GI50 (HT-29; [8]) was 30.6 µM, the CC50 (HT-29; [9]) was 30.6 µM and the “HT-29 TGI” value (HT-29) was 3.06E−05. The CC50 at 48 h ([1]; LC50 H-MEC-1, SRB assay) was 30.6 µM, the GI50 (HMEC1; [6]) was 30.6 µM and the “TGI H-MEC-1” value (HMEC1) was 3.06E−05.
